One test has as its target T1, B-RAF V600E (Homo sapiens, UniProt P15056, V600E).
T1 construct: expressed in transfected cells; host or cells: T-Rex 293 cells (Invitrogen #R71007)
Nature of the test: Target protein degradation, assay C: T-Rex 293 cells, HA-BRAF_V600E, 384 well format. To be noted: T-Rex 293 HA-BRAF_V600E cells, 24 hours, Examples 83-269; for DC50: Assay C; for Dmax: T-REx-293, Assay C. It is filed as cell-based. In a few lines: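 After 24 h exposure to an 11-point 1:3 series (300 nM–5 pM, 0.5% DMSO), fixed T-Rex 293 cells carrying HA-BRAF V600E (induced with 1 ng/mL doxycycline) were stained anti-HA and imaged. DC50 and Dmax were derived from BRAF intensity relative to control, and cytotoxicity from nuclear counts.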

For another test, the target named is T2, B-RAF G466V (Homo sapiens, UniProt P15056, G466V).
T2 construct: expressed in transfected cells; host or cells: T-Rex 293 cells (Invitrogen #R71007)
Nature of the test: Target protein degradation, assay D: T-Rex 293 cells, HA-BRAF_G466V, 384 well format. To be noted: T-Rex 293 HA-BRAF_G466V cells, 24 hours, Examples 83-269; for DC50: Assay D; for Dmax: T-REx-293, Assay D. It is filed as cell-based. Summed up: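 Degradation measured by high-content imaging of anti-HA immunofluorescence in fixed T-Rex 293 cells carrying inducible HA-BRAF G466V (1 ng/mL doxycycline), after 24 h PROTAC exposure at 37 °C over 300 nM–5 pM (1:3, 11 points, 0.5% DMSO). Outputs DC50 and Dmax as % of control; nuclei counts against DMSO wells gauge toxicity.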

Each structure is given as a SMILES string.

As a reminder, the DC50 is the midpoint of the concentration-degradation curve. The term Dmax denotes the largest share of the target that was removed. Higher therefore signals deep degradation.

T1 sequence (P15056 whole entry V600E): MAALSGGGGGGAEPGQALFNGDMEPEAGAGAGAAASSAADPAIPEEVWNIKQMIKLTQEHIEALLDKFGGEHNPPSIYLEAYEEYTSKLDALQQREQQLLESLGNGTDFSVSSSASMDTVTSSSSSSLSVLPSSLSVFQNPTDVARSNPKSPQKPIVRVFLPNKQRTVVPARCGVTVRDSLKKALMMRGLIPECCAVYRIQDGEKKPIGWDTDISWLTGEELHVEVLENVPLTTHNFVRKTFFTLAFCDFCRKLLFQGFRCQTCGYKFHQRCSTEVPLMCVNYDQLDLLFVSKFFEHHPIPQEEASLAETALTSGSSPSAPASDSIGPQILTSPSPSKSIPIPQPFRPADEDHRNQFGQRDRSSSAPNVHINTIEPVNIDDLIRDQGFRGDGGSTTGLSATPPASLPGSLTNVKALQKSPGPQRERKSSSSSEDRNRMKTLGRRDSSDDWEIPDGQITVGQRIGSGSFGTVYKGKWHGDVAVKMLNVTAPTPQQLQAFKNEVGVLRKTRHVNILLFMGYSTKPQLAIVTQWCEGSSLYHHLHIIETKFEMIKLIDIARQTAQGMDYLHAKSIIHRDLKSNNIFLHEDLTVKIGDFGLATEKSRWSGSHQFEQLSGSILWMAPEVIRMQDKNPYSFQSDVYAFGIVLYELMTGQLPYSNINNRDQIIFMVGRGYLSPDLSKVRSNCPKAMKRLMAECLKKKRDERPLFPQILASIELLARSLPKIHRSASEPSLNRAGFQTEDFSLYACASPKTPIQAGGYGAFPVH
T2 sequence (P15056 whole entry G466V): as the sequence (P15056 whole entry V600E) above, with G466V, E600V counted along it

As to `N#Cc1c(NS(=O)(=O)N2CC[C@@H](F)C2)ccc(F)c1Oc1ccc2ncn(-c3cnc(C4(N5CCN(CC6CN(c7ccc8c(c7)CN(C7CCC(=O)NC7=O)C8=O)C6)CC5)CC4)nc3)c(=O)c2c1` (stereo partly drawn) [Example 99, (3R)-N-(2-cyano-3-{[3-(2-{1-[4-({1-[2-(2,6-dioxopiperidin-3-yl)-1-oxo-2,3-dihydro-1H-isoindol-5-yl]azetidin-3-yl}methyl)piperazin-1-yl]cyclopropyl}pyrimidin-5-yl)-4-oxo-3,4-dihydroquinazolin-6-yl]oxy}-4-fluorophenyl)-3-fluoropyrrolidine-1-sulfonamide], at B-RAF V600E, the DC50 lay within 50 to 500 nM and the Dmax is 35 to 70%. On B-RAF G466V, the DC50 lay within 1 to 10 nM and the Dmax fell in the range of 35 to 70%.

On to `N#Cc1c(NS(=O)(=O)N2CC[C@@H](F)C2)ccc(F)c1Oc1ccc2ncn(-c3cnc(C4(N5CCN(CC6CCN(c7ccc8c(c7)CN(C7CCC(=O)NC7=O)C8=O)CC6)CC5)CC4)nc3)c(=O)c2c1` (stereo partly drawn) [Example 100, (3R)-N-(2-cyano-3-{[3-(2-{1-[4-({1-[2-(2,6-dioxopiperidin-3-yl)-1-oxo-2,3-dihydro-1H-isoindol-5-yl]piperidin-4-yl}methyl)piperazin-1-yl]cyclopropyl}pyrimidin-5-yl)-4-oxo-3,4-dihydroquinazolin-6-yl]oxy}-4-fluorophenyl)-3-fluoropyrrolidine-1-sulfonamide], for which, on B-RAF V600E, the DC50 fell in the range of 50 to 500 nM and the Dmax was in the range of 35 to 70%. Besides, on B-RAF G466V, the DC50 lay in the range of 1 to 10 nM and the Dmax is 35 to 70%.

Turning to `N#Cc1c(NS(=O)(=O)N2CC[C@@H](F)C2)ccc(F)c1Oc1ccc2ncn(-c3ccc(N4CCC(CN5CC(c6ccc7c(c6)CN(C6CCC(=O)NC6=O)C7=O)C5)CC4)cc3)c(=O)c2c1` (stereo partly drawn) [Example 101, (3R)-N-{2-cyano-3-[(3-{4-[4-({3-[2-(2,6-dioxopiperidin-3-yl)-1-oxo-2,3-dihydro-1H-isoindol-5-yl]azetidin-1-yl}methyl)piperidin-1-yl]phenyl}-4-oxo-3,4-dihydroquinazolin-6-yl)oxy]-4-fluorophenyl}-3-fluoropyrrolidine-1-sulfonamide], on B-RAF V600E, the DC50 lay within 50 to 500 nM and the Dmax is 35 to 70%. At B-RAF G466V, this compound gave a DC50 of 1 to 10 nM and a Dmax of 35 to 70%.

Take `N#Cc1c(NS(=O)(=O)N2CC[C@@H](F)C2)ccc(F)c1Oc1ccc2ncn(-c3cnc(C4(N5CCN(CC6CCN(c7ccc(NC8CCC(=O)NC8=O)cc7F)CC6)CC5)CC4)nc3)c(=O)c2c1` (stereo partly drawn) [Example 102, (3R)-N-[2-cyano-3-({3-[2-(1-{4-[(1-{4-[(2,6-dioxopiperidin-3-yl)amino]-2-fluorophenyl}piperidin-4-yl)methyl]piperazin-1-yl}cyclopropyl)pyrimidin-5-yl]-4-oxo-3,4-dihydroquinazolin-6-yl}oxy)-4-fluorophenyl]-3-fluoropyrrolidine-1-sulfonamide]: the DC50 is 50 to 500 nM on B-RAF V600E and greater than 30 nM at B-RAF G466V. Moreover, at B-RAF V600E, the Dmax lay within 35 to 70%.

For the compound `N#Cc1c(NS(=O)(=O)N2CC[C@@H](F)C2)ccc(F)c1Oc1ccc2ncn(-c3ccc(N4CCN(CC5CCN(c6ccc7c(c6)CN([C@@H]6CCC(=O)NC6=O)C7=O)CC5)CC4)cc3)c(=O)c2c1` [Example 103, (3R)-N-(2-cyano-3-{[3-(4-{4-[(1-{2-[(3R)-2,6-dioxopiperidin-3-yl]-1-oxo-2,3-dihydro-1H-isoindol-5-yl}piperidin-4-yl)methyl]piperazin-1-yl}phenyl)-4-oxo-3,4-dihydroquinazolin-6-yl]oxy}-4-fluorophenyl)-3-fluoropyrrolidine-1-sulfonamide], the results for the DC50 at B-RAF V600E and at B-RAF G466V were 5 to 50 nM and 1 to 10 nM, respectively. The Dmax on B-RAF V600E and on B-RAF G466V was 35 to 70% each time.

Take `Cc1c(N2CCC(CN3CCN(c4ccc(-n5cnc6ccc(Oc7c(F)ccc(NS(=O)(=O)N8CC[C@@H](F)C8)c7C#N)cc6c5=O)cc4)CC3)CC2)ccc2c1CN(C1CCC(=O)NC1=O)C2=O` (stereo partly drawn) [Example 104, (3R)-N-{2-cyano-3-[(3-{4-[4-({1-[2-(2,6-dioxopiperidin-3-yl)-4-methyl-1-oxo-2,3-dihydro-1H-isoindol-5-yl]piperidin-4-yl}methyl)piperazin-1-yl]phenyl}-4-oxo-3,4-dihydroquinazolin-6-yl)oxy]-4-fluorophenyl}-3-fluoropyrrolidine-1-sulfonamide]: on B-RAF V600E, the DC50 lay within 5 to 50 nM and the Dmax was 35 to 70%. On B-RAF G466V, this compound had a DC50 of 1 to 10 nM and a Dmax of 35 to 70%.

On B-RAF V600E, `N#Cc1c(NS(=O)(=O)N2CC[C@@H](F)C2)ccc(F)c1Oc1ccc2ncn(-c3cnc(C4(N5CCN(CC6CN(c7ccc(C8CCC(=O)NC8=O)cc7F)C6)CC5)CC4)nc3)c(=O)c2c1` (stereo partly drawn) [Example 105, (3R)-N-(2-cyano-3-{[3-(2-{1-[4-({1-[4-(2,6-dioxopiperidin-3-yl)-2-fluorophenyl]azetidin-3-yl}methyl)piperazin-1-yl]cyclopropyl}pyrimidin-5-yl)-4-oxo-3,4-dihydroquinazolin-6-yl]oxy}-4-fluorophenyl)-3-fluoropyrrolidine-1-sulfonamide] displayed a DC50 of 5 to 50 nM and a Dmax of 35 to 70%. Besides, on B-RAF G466V, the DC50 lay in the range of 1 to 10 nM and the Dmax was no more than 35%.

At B-RAF V600E, `N#Cc1c(NS(=O)(=O)N2CC[C@@H](F)C2)ccc(F)c1Oc1ccc2ncn(-c3cnc(C4(N5CCN(CC6CCN(c7ccc(C8CCC(=O)NC8=O)cc7F)CC6)CC5)CC4)nc3)c(=O)c2c1` (stereo partly drawn) [Example 106, (3R)-N-(2-cyano-3-{[3-(2-{1-[4-({1-[4-(2,6-dioxopiperidin-3-yl)-2-fluorophenyl]piperidin-4-yl}methyl)piperazin-1-yl]cyclopropyl}pyrimidin-5-yl)-4-oxo-3,4-dihydroquinazolin-6-yl]oxy}-4-fluorophenyl)-3-fluoropyrrolidine-1-sulfonamide] returned a DC50 of 50 to 500 nM and a Dmax of 35 to 70%. On B-RAF G466V, this compound registered a DC50 of 1 to 10 nM and a Dmax of no more than 35%.

On to `N#Cc1c(NS(=O)(=O)N2CC[C@@H](F)C2)ccc(F)c1Oc1ccc2ncn(-c3ccc(N4CCN(CC5CN(c6ccc7c(c6)CN([C@@H]6CCC(=O)NC6=O)C7=O)C5)CC4)cc3)c(=O)c2c1` [Example 107, (3R)-N-(2-cyano-3-{[3-(4-{4-[(1-{2-[(3R)-2,6-dioxopiperidin-3-yl]-1-oxo-2,3-dihydro-1H-isoindol-5-yl}azetidin-3-yl)methyl]piperazin-1-yl}phenyl)-4-oxo-3,4-dihydroquinazolin-6-yl]oxy}-4-fluorophenyl)-3-fluoropyrrolidine-1-sulfonamide], for which the DC50 on B-RAF V600E lay in the range of 5 to 50 nM; at B-RAF G466V, 1 to 10 nM. Moreover, the Dmax at B-RAF V600E and on B-RAF G466V was 35 to 70% throughout.

On B-RAF V600E, `N#Cc1c(NS(=O)(=O)N2CC[C@@H](F)C2)ccc(F)c1Oc1ccc2ncn(-c3cnc(C4(N5CCN(CC6CN(c7ccc(NC8CCC(=O)NC8=O)cc7F)C6)CC5)CC4)nc3)c(=O)c2c1` (stereo partly drawn) [Example 108, (3R)-N-[2-cyano-3-({3-[2-(1-{4-[(1-{4-[(2,6-dioxopiperidin-3-yl)amino]-2-fluorophenyl}azetidin-3-yl)methyl]piperazin-1-yl}cyclopropyl)pyrimidin-5-yl]-4-oxo-3,4-dihydroquinazolin-6-yl}oxy)-4-fluorophenyl]-3-fluoropyrrolidine-1-sulfonamide] showed a DC50 of 5 to 50 nM and a Dmax of 35 to 70%. At B-RAF G466V, this compound returned a DC50 of 1 to 10 nM and a Dmax of no more than 35%.

In the case of `CCN(C)S(=O)(=O)Nc1ccc(F)c(Oc2ccc3ncn(-c4ccc(N5CCN(CC6CCN(c7ccc8c(c7)CN(C7CCC(=O)NC7=O)C8=O)CC6)CC5)cc4)c(=O)c3c2)c1C#N` (centres unmarked) [Example 109, 2-[(3-{4-[4-({1-[2-(2,6-dioxopiperidin-3-yl)-1-oxo-2,3-dihydro-1H-isoindol-5-yl]piperidin-4-yl}methyl)piperazin-1-yl]phenyl}-4-oxo-3,4-dihydroquinazolin-6-yl)oxy]-6-{[ethyl(methyl)sulfamoyl]amino}-3-fluorobenzonitrile], the DC50 lay within 50 to 500 nM on B-RAF V600E and 1 to 10 nM at B-RAF G466V. Moreover, the Dmax on B-RAF V600E and at B-RAF G466V was 35 to 70% in each case.

For the compound `CCN(C)S(=O)(=O)Nc1ccc(F)c(Oc2ccc3ncn(-c4ccc(N5CCN(CC6CCN(c7ccc(C8CCC(=O)NC8=O)cc7F)CC6)CC5)cc4)c(=O)c3c2)c1C#N` (centres unmarked) [Example 110, 2-[(3-{4-[4-({1-[4-(2,6-dioxopiperidin-3-yl)-2-fluorophenyl]piperidin-4-yl}methyl)piperazin-1-yl]phenyl}-4-oxo-3,4-dihydroquinazolin-6-yl)oxy]-6-{[ethyl(methyl)sulfamoyl]amino}-3-fluorobenzonitrile], at B-RAF V600E, the DC50 is 50 to 500 nM and the Dmax fell in the range of 35 to 70%. The compound also displayed a DC50 at B-RAF G466V greater than 30 nM.

Turning to `N#Cc1c(NS(=O)(=O)N2CC[C@@H](F)C2)ccc(F)c1Oc1ccc2ncn(-c3ccc(N4CCN(CC5CCN(c6ccc7c(c6F)CN([C@H]6CCC(=O)NC6=O)C7=O)CC5)CC4)cn3)c(=O)c2c1` [Example 114, (3R)-N-(2-cyano-3-{[3-(5-{4-[(1-{2-[(3S)-2,6-dioxopiperidin-3-yl]-4-fluoro-1-oxo-2,3-dihydro-1H-isoindol-5-yl}piperidin-4-yl)methyl]piperazin-1-yl}pyridin-2-yl)-4-oxo-3,4-dihydroquinazolin-6-yl]oxy}-4-fluorophenyl)-3-fluoropyrrolidine-1-sulfonamide], the results for the DC50 on B-RAF V600E and on B-RAF G466V were 50 to 500 nM and 1 to 10 nM, respectively. For the same compound, the Dmax at B-RAF V600E was no more than 35%; on B-RAF G466V it was 35 to 70%.

The values above are taken from patent US11957759B1, “Rapidly accelerated fibrosarcoma (RAF) degrading compounds and associated methods of use” (Arvinas Operations, Inc., priority 2022, dated 2024).
